Assay results as given in ChEMBL document CHEMBL4831492, “Design and synthesis of 2-(2-isonicotinoylhydrazineylidene)propanamides as InhA inhibitors with high antitubercular activity” (Eur J Med Chem, 2021).
≈ marks a conversion by molar mass, not a printed value. Calls of active or inactive are those of the source. The calls are words filed in the database; no cut-off is given here.

Tests used:
[1] = system: Mycobacterium tuberculosis; experiment: Antimycobacterial activity against drug susceptible Mycobacterium tuberculosis H37Rv assessed as minimal inhibitory concentration required for complete inhibition of mycobacterial growth incubated for 14 days; assay type: functional; conditions: 336 h, time 14 day
[2] = system: Mycobacterium tuberculosis; experiment: Antimycobacterial activity against drug susceptible Mycobacterium tuberculosis H37Rv assessed as minimal inhibitory concentration required for complete inhibition of mycobacterial growth incubated for 21 days; assay type: functional; conditions: 504 h, time 21 day
Mycobacterium avium [3] = experiment: Antimycobacterial activity against drug resistant Mycobacterium avium 330/88 assessed as minimal inhibitory concentration required for complete inhibition of mycobacterial growth incubated for 14 days; assay type: functional; conditions: 330/88, 336 h, time 14 day
Mycobacterium avium [4] = experiment: Antimycobacterial activity against drug resistant Mycobacterium avium 330/88 assessed as minimal inhibitory concentration required for complete inhibition of mycobacterial growth incubated for 21 days; assay type: functional; conditions: 330/88, 504 h, time 21 day
Mycobacterium kansasii [5] = experiment: Antimycobacterial activity against drug resistant Mycobacterium kansasii 6509/96 assessed as minimal inhibitory concentration required for complete inhibition of mycobacterial growth incubated for 7 days; assay type: functional; conditions: 6509/96, 168 h, time 7 day
Mycobacterium kansasii [6] = experiment: Antimycobacterial activity against drug resistant Mycobacterium kansasii 6509/96 assessed as minimal inhibitory concentration required for complete inhibition of mycobacterial growth incubated for 14 days; assay type: functional; conditions: 6509/96, 336 h, time 14 day
Mycobacterium kansasii [7] = experiment: Antimycobacterial activity against drug resistant Mycobacterium kansasii 6509/96 assessed as minimal inhibitory concentration required for complete inhibition of mycobacterial growth incubated for 21 days; assay type: functional; conditions: 6509/96, 504 h, time 21 day
Mycobacterium kansasii [8] = experiment: Antimycobacterial activity against drug resistant Mycobacterium kansasii 235/80 assessed as minimal inhibitory concentration required for complete inhibition of mycobacterial growth incubated for 7 days; assay type: functional; conditions: 235/80, 168 h, time 7 day
Mycobacterium kansasii [9] = experiment: Antimycobacterial activity against drug resistant Mycobacterium kansasii 235/80 assessed as minimal inhibitory concentration required for complete inhibition of mycobacterial growth incubated for 14 days; assay type: functional; conditions: 235/80, 336 h, time 14 day
Mycobacterium kansasii [10] = experiment: Antimycobacterial activity against drug resistant Mycobacterium kansasii 235/80 assessed as minimal inhibitory concentration required for complete inhibition of mycobacterial growth incubated for 21 days; assay type: functional; conditions: 235/80, 504 h, time 21 day
HepG2 [11] = experiment: Cytotoxicity against human HepG2 cells assessed as reduction in cell viability incubated overnight followed by compound washout by MTT assay; assay type: cell-based
HepG2 [12] = experiment: Cytostatic activity in human HepG2 cells assessed as reduction in cell viability incubated overnight followed by compound washout and further incubated for 72 hrs in medium containing serum by MTT assay; assay type: functional, cell-based; conditions: HepG2, 72 h
[13] = Selectivity index, ratio of CC50 for cytotoxicity against human HepG2 cells to MIC for antimycobacterial activity against drug susceptible Mycobacterium tuberculosis H37Rv; assay type: toxicity, cell-based; conditions: read-out: Selectivity Index
[14] = Selectivity index, ratio of CC50 for cytotoxicity against human HepG2 cells to MIC for antimycobacterial activity against drug susceptible Mycobacterium […]; assay type: toxicity, cell-based; conditions: read-out: Selectivity Index
[15] = system: Mycobacterium tuberculosis; experiment: Antimycobacterial activity against Mycobacterium tuberculosis H37Ra carrying pMC261/pVV16 plasmid assessed as bacterial growth inhibition incubated for 28 days by drop dilution method; assay type: functional; conditions: 672 h, time 28 day
[16] = system: Mycobacterium tuberculosis; experiment: Inhibition of mycolic acid synthesis in Mycobacterium tuberculosis H37Ra assessed as decrease in production of trehalose monomycolates at MIC incubated for 24 hrs followed by 14C labelling and further incubated for 24 hrs by TLC based autoradiography analysis; assay type: functional, organism-based; conditions: time 48.0 hrs
[17] = system: Mycobacterium tuberculosis; experiment: Inhibition of mycolic acid synthesis in Mycobacterium tuberculosis H37Ra assessed as decrease in production of trehalose dimycolates at MIC incubated for 24 hrs followed by 14C labelling and further incubated for 24 hrs by TLC based autoradiography analysis; assay type: functional, organism-based; conditions: time 48.0 hrs
[18] = system: Mycobacterium tuberculosis; experiment: Inhibition of mycolic acid synthesis in Mycobacterium tuberculosis H37Ra assessed as decrease in production of mycolic acid at MIC incubated for 24 hrs followed by 14C addition and further incubated for 24 hrs by TLC based autoradiography analysis; assay type: functional, organism-based; conditions: time 48.0 hrs
[19] = system: Mycobacterium tuberculosis; experiment: Inhibition of mycolic acid synthesis in Mycobacterium tuberculosis H37Ra assessed as decrease in production of standard fatty acid at MIC incubated for 24 hrs followed by 14C labelling and further incubated for 24 hrs by TLC based autoradiography analysis; assay type: functional, organism-based; conditions: time 48.0 hrs
Mycobacterium avium [20] = experiment: Antimycobacterial activity against drug resistant Mycobacterium avium 330/88 assessed as inhibition of mycobacterial growth at 125 uM incubated for 14 days; assay type: functional, organism-based; conditions: time 14.0 day
Mycobacterium avium [21] = experiment: Antimycobacterial activity against drug resistant Mycobacterium avium 330/88 assessed as inhibition of mycobacterial growth at 125 uM incubated for 21 days; assay type: functional, organism-based; conditions: time 21.0 day

Row | Compound | MIC [1] | MIC [2] | MIC (Mycobacterium avium [3]) | MIC (Mycobacterium avium [4]) | MIC (Mycobacterium kansasii [5]) | MIC (Mycobacterium kansasii [6]) | MIC (Mycobacterium kansasii [7]) | MIC (Mycobacterium kansasii [8]) | MIC (Mycobacterium kansasii [9]) | MIC (Mycobacterium kansasii [10]) | IC50 (HepG2 [11]) | IC50 (HepG2 [12]) | selectivity ratio [13] | selectivity ratio [14] | also measured
1 | C/C(=N\NC(=O)c1ccncc1)C(=O)Nc1ccc(C(F)(F)C(F)(F)C(F)(F)C(F)(F)C(F)(F)C(F)(F)C(F)(F)C(F)(F)F)cc1 | 0.25 µM (≈ 0.175 µg/mL) | 0.5 µM (≈ 0.35 µg/mL) | > 1000 µM | > 1000 µM | > 1000 µM | > 1000 µM | > 1000 µM | – | – | – | – | – | – | – | –
2 | C/C(=N\NC(=O)c1ccncc1)C(=O)O [PYRUVIC ACID ISONIAZID] | 1 µM (≈ 0.207 µg/mL) | 1 µM (≈ 0.207 µg/mL) | 500 µM (≈ 104 µg/mL) | > 1000 µM | 8 µM (≈ 1.66 µg/mL) | 16 µM (≈ 3.32 µg/mL) | 16 µM (≈ 3.32 µg/mL) | 8 µM (≈ 1.66 µg/mL) | 16 µM (≈ 3.32 µg/mL) | 16 µM (≈ 3.32 µg/mL) | > 50 µM | > 50 µM | > 50 | > 3.12 | –
3 | C/C(=N\NC(=O)c1ccncc1)C(=O)Nc1ccc(Cl)c(Cl)c1 | 0.06 µM (≈ 0.0211 µg/mL) | 0.06 µM (≈ 0.0211 µg/mL) | > 250 µM | > 250 µM | 4 µM (≈ 1.4 µg/mL) | 8 µM (≈ 2.81 µg/mL) | 16 µM (≈ 5.62 µg/mL) | > 250 µM | > 250 µM | > 250 µM | > 50 µM | > 50 µM | > 833 | > 3.12 | –
4 | C/C(=N\NC(=O)c1ccncc1)C(=O)Nc1cccc(Br)c1 | 0.125 µM (≈ 0.0451 µg/mL) | 0.125 µM (≈ 0.0451 µg/mL) | > 1000 µM | > 1000 µM | 4 µM (≈ 1.44 µg/mL) | 8 µM (≈ 2.89 µg/mL) | 8 µM (≈ 2.89 µg/mL) | – | – | – | – | – | – | – | –
5 | C/C(=N\NC(=O)c1ccncc1)C(=O)Nc1cc(Cl)cc(Cl)c1 | ≤ 0.25 µM | 0.25 µM (≈ 0.0878 µg/mL) | > 250 µM | > 250 µM | 16 µM (≈ 5.62 µg/mL) | 16 µM (≈ 5.62 µg/mL) | 32 µM (≈ 11.2 µg/mL) | > 250 µM | > 250 µM | > 250 µM | > 50 µM | > 50 µM | > 200 | > 1.56 | –
6 | C/C(=N\NC(=O)c1ccncc1)C(=O)Nc1ccc(Br)cc1 | 0.06 µM (≈ 0.0217 µg/mL) | 0.125 µM (≈ 0.0451 µg/mL) | 250 µM (≈ 90.3 µg/mL) | 250 µM (≈ 90.3 µg/mL) | 4 µM (≈ 1.44 µg/mL) | 8 µM (≈ 2.89 µg/mL) | 16 µM (≈ 5.78 µg/mL) | 16 µM (≈ 5.78 µg/mL) | 16 µM (≈ 5.78 µg/mL) | 16 µM (≈ 5.78 µg/mL) | > 50 µM | > 50 µM | > 400 | > 3.12 | –
7 | C/C(=N\NC(=O)c1ccncc1)C(=O)Nc1ccc(I)cc1 | 0.25 µM (≈ 0.102 µg/mL) | 0.25 µM (≈ 0.102 µg/mL) | 250 µM (≈ 102 µg/mL) | 250 µM (≈ 102 µg/mL) | 2 µM (≈ 0.816 µg/mL) | 4 µM (≈ 1.63 µg/mL) | 4 µM (≈ 1.63 µg/mL) | 8 µM (≈ 3.27 µg/mL) | 8 µM (≈ 3.27 µg/mL) | 8 µM (≈ 3.27 µg/mL) | > 50 µM | > 50 µM | > 200 | > 12.5 | MIC [15]: 0.5 µM (≈ 0.204 µg/mL); inhibition [16]: Active; inhibition [17]: Active; inhibition [18]: Active; inhibition [19]: inactive
8 | C/C(=N\NC(=O)c1ccncc1)C(=O)Nc1ccc(F)cc1 | 0.25 µM (≈ 0.0751 µg/mL) | 0.25 µM (≈ 0.0751 µg/mL) | > 250 µM | > 250 µM | 2 µM (≈ 0.601 µg/mL) | 4 µM (≈ 1.2 µg/mL) | 8 µM (≈ 2.4 µg/mL) | 62.5 µM (≈ 18.8 µg/mL) | 125 µM (≈ 37.5 µg/mL) | 250 µM (≈ 75.1 µg/mL) | > 50 µM | > 50 µM | > 200 | > 625 | –
9 | C/C(=N\NC(=O)c1ccncc1)C(=O)Nc1ccc(OC(F)(F)F)cc1 | ≤ 0.03 µM | ≤ 0.03 µM | – | – | 2 µM (≈ 0.733 µg/mL) | 2 µM (≈ 0.733 µg/mL) | 4 µM (≈ 1.47 µg/mL) | 8 µM (≈ 2.93 µg/mL) | 8 µM (≈ 2.93 µg/mL) | 16 µM (≈ 5.86 µg/mL) | > 50 µM | > 50 µM | > 1670 | > 12.5 | MIC [15]: 0.3 µM (≈ 0.11 µg/mL); inhibition [16]: Active; inhibition [17]: Active; inhibition [18]: Active; inhibition [19]: inactive; Activity (Mycobacterium avium [20]): inactive; Activity (Mycobacterium avium [21]): inactive
10 | C/C(=N\NC(=O)c1ccncc1)C(=O)Nc1cccc(C(F)(F)F)c1 | 0.125 µM (≈ 0.0438 µg/mL) | 0.25 µM (≈ 0.0876 µg/mL) | > 1000 µM | > 1000 µM | 2 µM (≈ 0.701 µg/mL) | 4 µM (≈ 1.4 µg/mL) | 8 µM (≈ 2.8 µg/mL) | – | – | – | – | – | – | – | –
